Laboratory results from ChEMBL document CHEMBL3091439, “Further discovery of caffeic acid derivatives as novel influenza neuraminidase inhibitors” (Bioorg Med Chem, 2013).

Experiments:
Neuraminidase [1] = target: T1, Neuraminidase (Influenza A virus, UniProt B4URF0); experiment: Inhibition of Influenza A virus (A/Chicken/Shandong/LY/08(H9N2)) neuraminidase using 4-MU-NANA as substrate incubated for 5 mins prior to substrate addition measured after 30 to 60 mins by fluorescence assay; set-up: species or system Influenza A virus (A/chicken/Shandong/LY/2008(H9N2))
Influenza A virus = experiment: Antiviral activity against Influenza A virus (A/Chicken/Shandong/LY/08(H9N2)) infected in chicken embryo fibroblasts assessed as protection against virus-induced cytopathic effect preincubated for 1 hr followed by viral-infection measured after 2 days by MTS assay; format: functional, organism-based, Influenza A virus (A/chicken/Shandong/LY/2008(H9N2))
[2] = Cytotoxicity against chicken embryo fibroblasts infected with Influenza A virus (A/Chicken/Shandong/LY/08(H9N2)) preincubated for 1 hr followed by viral-infection measured after 2 days by MTS assay; format: cell-based, Gallus gallus, Fibroblast
Neuraminidase [3] = target: T1, Neuraminidase; experiment: Inhibition of influenza A virus A/duck/China/QJ/01(H5N1) neuraminidase using 4-MU-NANA as substrate incubated for 5 mins prior to substrate addition measured after 30 to 60 mins by fluorescence assay
Neuraminidase [4] = target: T1, Neuraminidase; experiment: Non competitive inhibition of Influenza A virus (A/Chicken/Shandong/LY/08(H9N2)) neuraminidase using 4-MU-NANA as substrate incubated for 5 mins prior to substrate addition measured after 30 to 60 mins by Lineweaver-Burk plot analysis; set-up: species or system Influenza A virus (A/chicken/Shandong/LY/2008(H9N2))
Neuraminidase [5] = target: T1, Neuraminidase; experiment: Non competitive inhibition of influenza A virus A/duck/China/QJ/01(H5N1) neuraminidase using 4-MU-NANA as substrate incubated for 5 mins prior to substrate addition measured after 30 to 60 mins by Lineweaver-Burk plot analysis

CCC(CC)C(=O)Nc1cc(NC(=O)[C@H](CC(C)C)NC(=O)/C=C/c2ccc(O)c(O)c2)ccc1OCC(=O)O
IC50 (Neuraminidase [1]): 8.5 µM
EC50 (Influenza A virus): 13.5 µM
CC50 at 48 h [2]: 89.7 µM
IC50 (Neuraminidase [3]): 14 µM

CCC(CC)C(=O)Nc1cc(NC(=O)C(C)C)c(NC(=N)N)cc1OCC(=O)O
IC50 (Neuraminidase [1]): 83.2 µM

CCC(CC)C(=O)Nc1cc(NC(=O)NCc2ccccc2)ccc1OCC(=O)O
IC50 (Neuraminidase [1]): 49.7 µM
IC50 (Neuraminidase [3]): 55.6 µM

C#CCNC(=O)Nc1ccc(OCC(=O)O)c(NC(=O)C(CC)CC)c1
IC50 (Neuraminidase [1]): 89.8 µM

CCC(CC)C(=O)Nc1cc(NC(=O)N[C@H](CC)CO)ccc1OCC(=O)O
IC50 (Neuraminidase [1]): > 100 µM

CCC(CC)C(=O)Nc1cc(NC(C)=O)c(NC(=O)/C=C/c2ccc(O)c(O)c2)cc1OCC(=O)O
Ki (Neuraminidase [4]): 2.7 µM
IC50 (Neuraminidase [1]): 3.2 µM
EC50 (Influenza A virus): 13.8 µM
CC50 at 48 h [2]: > 100 µM
IC50 (Neuraminidase [3]): 10.7 µM

CCC(CC)C(=O)Nc1cc(NC(=O)C(C)C)c(NC(=O)/C=C/c2ccc(O)c(O)c2)cc1OCC(=O)O
IC50 (Neuraminidase [1]): 5.8 µM
EC50 (Influenza A virus): 14.5 µM
CC50 at 48 h [2]: > 100 µM
IC50 (Neuraminidase [3]): 14.2 µM

CCC(CC)CN(C(=O)/C=C/c1ccc(O)c(O)c1)c1ccc(OCC(=O)O)c(NC(=O)C(CC)CC)c1
IC50 (Neuraminidase [1]): 25.2 µM
EC50 (Influenza A virus): 56.4 µM
CC50 at 48 h [2]: > 100 µM
IC50 (Neuraminidase [3]): 11.3 µM

CCC(CC)C(=O)Nc1cc(N(Cc2cccs2)C(=O)/C=C/c2ccc(O)c(O)c2)ccc1OCC(=O)O
IC50 (Neuraminidase [1]): 24.1 µM
CC50 at 48 h [2]: 87.6 µM
IC50 (Neuraminidase [3]): 16.4 µM

CCC(CC)C(=O)Nc1cc(N(Cc2ccccc2)C(=O)/C=C/c2ccc(O)c(O)c2)ccc1OCC(=O)O
IC50 (Neuraminidase [1]): 16 µM
CC50 at 48 h [2]: 78.2 µM
IC50 (Neuraminidase [3]): 11.4 µM
Ki (Neuraminidase [5]): 32.5 µM

CCC(CC)C(=O)Nc1cc(NC(=O)CNC(=O)/C=C/c2ccc(O)c(O)c2)ccc1OCC(=O)O
IC50 (Neuraminidase [1]): 9.2 µM
EC50 (Influenza A virus): 33.6 µM
CC50 at 48 h [2]: > 100 µM
IC50 (Neuraminidase [3]): 17.6 µM

CCC(CC)C(=O)Nc1cc(NC(=O)[C@H](C)NC(=O)/C=C/c2ccc(O)c(O)c2)ccc1OCC(=O)O
IC50 (Neuraminidase [1]): 7.9 µM
EC50 (Influenza A virus): 25.4 µM
CC50 at 48 h [2]: > 100 µM
IC50 (Neuraminidase [3]): 16.1 µM
Ki (Neuraminidase [5]): 9.5 µM

CCC(CC)C(=O)Nc1cc(NC(=O)[C@@H](NC(=O)/C=C/c2ccc(O)c(O)c2)C(C)C)ccc1OCC(=O)O
IC50 (Neuraminidase [1]): 9.4 µM
EC50 (Influenza A virus): 22.9 µM
CC50 at 48 h [2]: 70.4 µM
IC50 (Neuraminidase [3]): 16.6 µM

CCC(CC)C(=O)Nc1cc(NC(=O)[C@H](Cc2ccccc2)NC(=O)/C=C/c2ccc(O)c(O)c2)ccc1OCC(=O)O
IC50 (Neuraminidase [1]): 9.8 µM
CC50 at 48 h [2]: 68.3 µM
IC50 (Neuraminidase [3]): 16.2 µM

CCC(CC)C(=O)Nc1cc(NC(C)=O)c(NC(=O)CCc2ccc(O)c(O)c2)cc1OCC(=O)O
IC50 (Neuraminidase [1]): 15.8 µM
CC50 at 48 h [2]: 47.2 µM
IC50 (Neuraminidase [3]): 42.7 µM

CCC(CC)C(=O)Nc1cc(NC(=O)C(C)C)c(NC(=O)CCc2ccc(O)c(O)c2)cc1OCC(=O)O
IC50 (Neuraminidase [1]): 14.2 µM
IC50 (Neuraminidase [3]): 38.2 µM

CCC(CC)C(=O)Nc1cc(NC(C)=O)c(NC(=N)N)cc1OCC(=O)O
IC50 (Neuraminidase [1]): 69.1 µM
IC50 (Neuraminidase [3]): 75.8 µM

CCC(CC)C(=O)Nc1cc(NC(=O)C(C)C)c(N)cc1OCC(=O)O
IC50 (Neuraminidase [1]): 54.3 µM
IC50 (Neuraminidase [3]): 61.2 µM

CCC(CC)C(=O)Nc1cc(NC(C)=O)c(N)cc1OCC(=O)O
IC50 (Neuraminidase [1]): 46.4 µM
IC50 (Neuraminidase [3]): 58.5 µM

CCC(CC)C(=O)Nc1cc(NC(=N)N)ccc1OCC(=O)O
IC50 (Neuraminidase [1]): > 100 µM

CCC(CC)C(=O)Nc1cc(N)ccc1OCC(=O)O
IC50 (Neuraminidase [1]): > 100 µM

CCC(CC)C(=O)Nc1cc(NC(=O)c2ccco2)ccc1OCC(=O)O
IC50 (Neuraminidase [1]): > 100 µM

CCC(CC)C(=O)Nc1ccc(OCC(=O)O)c(NC(=O)C(CC)CC)c1
IC50 (Neuraminidase [1]): > 100 µM

CCC(CC)C(=O)Nc1cc(NS(=O)(=O)c2ccc(C)cc2)ccc1OCC(=O)O
IC50 (Neuraminidase [1]): 78.6 µM
IC50 (Neuraminidase [3]): 86.7 µM
